Source: the supplement of paper PMC11208160

Assay: recombinant UMI read abundance after kanamycin selection (control-corrected) (log10(CPM+1)); higher = more efficient recombination; extreme values may be limits of the assay; sequences stand for … in AGTGCAGAGAAAATCGGCCAGTTTTCTCTGCCTGCAGTCCGCATGCCGTGGGACCCCTTGGGTTCTAACCTGTTGCCTAGATTTATGCAGCGGACTGCCTTTCTCCCAAAGTGATAAACCGG…AGGTTGGTTTCACT; site = the 11-nt donor
Outline: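 In Escherichia coli, a pool of donor and donor-binding-loop pairs, each with a 12-nt UMI, was tested for the IS621 bridge recombinase. Plating was on IPTG (0.07 mM) plus kanamycin, or without selection, in two replicates. Recombinant UMIs were amplified by PCR across the donor–target junction and sequenced, and counts were reported as log10(CPM+1) after averaging and control-derived scaling.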
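Also: IS621 bridge recombinase in Escherichia coli cells against a fixed T5 target plasmid.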

First: GGAACGACATGGACCGGTTTTCCCGGTAATCCGTATTTGAT (site GGAACGACTAT)
Second: GGAATGCCATGGACCGGTTTTCCCGGTAATCCGTATTTGCA (site GGAATGCCTTG)
The “recombinant UMI read abundance (log10)” value of the first is higher: 1.43 for the first, 0 for the second.

First: GGACAGCCATGGACCGGTTTTCCCGGTAATCCGTATTTGCA (site GGACAGCCTTG)
Second: GGACCATCATGGACCGGTTTTCCCGGTAATCCGTATTTGTC (site GGACCATCTGA)
The “recombinant UMI read abundance (log10)” value of the first is lower: 1.07 for the first, 2.27 for the second.

“GGACCGGCATGGACCGGTTTTCCCGGTAATCCGTATTTGGG (site GGACCGGCTCC)” and “GGACTCACATGGACCGGTTTTCCCGGTAATCCGTATTTGTG (site GGACTCACTCA)” are within 0.2 log units of each other in “recombinant UMI read abundance (log10)” value: 0.0163 for the first, 0.00312 for the second.

Compared with “GGACTTCCATGGACCGGTTTTCCCGGTAATCCGTATTTGAA (site GGACTTCCTTT)”, “GGAGACTCATGGACCGGTTTTCCCGGTAATCCGTATTTGGC (site GGAGACTCTGC)” is lower in “recombinant UMI read abundance (log10)” value: 1.42 for the first, 0.784 for the second.

Compared with “GGAGACTCATGGACCGGTTTTCCCGGTAATCCGTATTTGTG (site GGAGACTCTCA)”, “GGAGAGGCATGGACCGGTTTTCCCGGTAATCCGTATTTGGT (site GGAGAGGCTAC)” is lower in “recombinant UMI read abundance (log10)” value: 1.74 for the first, 0.00324 for the second.

“GGAGAGGCATGGACCGGTTTTCCCGGTAATCCGTATTTGGT (site GGAGCGGCTAC)” and “GGAGAGGCATGGACCGGTTTTCCCGGTAATCCGTATTTGGT (site GGAGGGGCTAC)” are within 0.2 log units of each other in “recombinant UMI read abundance (log10)” value: 0.00751 for the first, 0.0239 for the second.

“GGAGAGGCATGGACCGGTTTTCCCGGTAATCCGTATTTGGT (site GGAGTGGCTAC)” and “GGAGATCCATGGACCGGTTTTCCCGGTAATCCGTATTTGCA (site GGAGATCCTTG)” are within 0.2 log units of each other in “recombinant UMI read abundance (log10)” value: 0.0204 for the first, 0 for the second.

“GGAGATTCATGGACCGGTTTTCCCGGTAATCCGTATTTGTT (site GAAGATTCTAA)” and “GGAGATTCATGGACCGGTTTTCCCGGTAATCCGTATTTGTT (site GCAGATTCTAA)” are the same in “recombinant UMI read abundance (log10)” value: 0 for the first, 0 for the second.

Going from “GGAGATTCATGGACCGGTTTTCCCGGTAATCCGTATTTGTT (site GGAGATTCTAA)” to “GGAGATTCATGGACCGGTTTTCCCGGTAATCCGTATTTGTT (site GTAGATTCTAA)”, the “recombinant UMI read abundance (log10)” value falls from 2.52 to 0.

Going from “GGAGCTTCATGGACCGGTTTTCCCGGTAATCCGTATTTGGC (site GGAGCTTCTGC)” to “GGAGGACCATGGACCGGTTTTCCCGGTAATCCGTATTTGGG (site AGAGGACCTCC)”, the “recombinant UMI read abundance (log10)” value falls from 1.5 to 0.

“GGAGGACCATGGACCGGTTTTCCCGGTAATCCGTATTTGGG (site CGAGGACCTCC)” and “GGAGGACCATGGACCGGTTTTCCCGGTAATCCGTATTTGGG (site GGAGGACCTCC)” are within 0.2 log units of each other in “recombinant UMI read abundance (log10)” value: 0.0177 for the first, 0.00471 for the second.

Compared with “GGAGGACCATGGACCGGTTTTCCCGGTAATCCGTATTTGGG (site TGAGGACCTCC)”, “GGAGGTTCATGGACCGGTTTTCCCGGTAATCCGTATTTGAT (site GGAGGTTCTAT)” is higher in “recombinant UMI read abundance (log10)” value: 0.00615 for the first, 1.87 for the second.

Compared with “GGAGTAGCATGGACCGGTTTTCCCGGTAATCCGTATTTGTC (site GGAGTAGCTGA)”, “GGAGTGGCATGGACCGGTTTTCCCGGTAATCCGTATTTGAT (site GGAGTGGCTAA)” is lower in “recombinant UMI read abundance (log10)” value: 1.98 for the first, 0.00289 for the second.

“GGAGTGGCATGGACCGGTTTTCCCGGTAATCCGTATTTGAT (site GGAGTGGCTAC)” and “GGAGTGGCATGGACCGGTTTTCCCGGTAATCCGTATTTGAT (site GGAGTGGCTAG)” are within 0.2 log units of each other in “recombinant UMI read abundance (log10)” value: 0.0174 for the first, 0 for the second.

Going from “GGAGTGGCATGGACCGGTTTTCCCGGTAATCCGTATTTGAT (site GGAGTGGCTAT)” to “GGAGTGGCATGGACCGGTTTTCCCGGTAATCCGTATTTGTT (site GGAGTGGCTAA)”, the “recombinant UMI read abundance (log10)” value falls from 1.87 to 1.06.

Going from “GGAGTGGCATGGACCGGTTTTCCCGGTAATCCGTATTTGTT (site GGAGTGGCTAC)” to “GGAGTGGCATGGACCGGTTTTCCCGGTAATCCGTATTTGTT (site GGAGTGGCTAG)”, the “recombinant UMI read abundance (log10)” value rises from 0.00283 to 1.76.

Compared with “GGAGTGGCATGGACCGGTTTTCCCGGTAATCCGTATTTGTT (site GGAGTGGCTAT)”, “GGATAAACATGGACCGGTTTTCCCGGTAATCCGTATTTGCC (site GGATAAACTGG)” is higher in “recombinant UMI read abundance (log10)” value: 0.767 for the first, 2.49 for the second.

First: GGATAAACATGGACCGGTTTTCCCGGTAATCCGTATTTGCC (site GGATACACTGG)
Second: GGATAAACATGGACCGGTTTTCCCGGTAATCCGTATTTGCC (site GGATAGACTGG)
The “recombinant UMI read abundance (log10)” value of the first is higher: 1.01 for the first, 0 for the second.

“GGATAAACATGGACCGGTTTTCCCGGTAATCCGTATTTGCC (site GGATATACTGG)” and “GGATACACATGGACCGGTTTTCCCGGTAATCCGTATTTGCC (site GGATAAACTGG)” are the same in “recombinant UMI read abundance (log10)” value: 0 for the first, 0 for the second.

First: GGATACACATGGACCGGTTTTCCCGGTAATCCGTATTTGCC (site GGATACACTGG)
Second: GGATACACATGGACCGGTTTTCCCGGTAATCCGTATTTGCC (site GGATAGACTGG)
The “recombinant UMI read abundance (log10)” value of the first is higher: 2.97 for the first, 0 for the second.

Compared with “GGATACACATGGACCGGTTTTCCCGGTAATCCGTATTTGCC (site GGATATACTGG)”, “GGATAGACATGGACCGGTTTTCCCGGTAATCCGTATTTGCA (site GGATAGACTAG)” is higher in “recombinant UMI read abundance (log10)” value: 0 for the first, 0.763 for the second.

Compared with “GGATAGACATGGACCGGTTTTCCCGGTAATCCGTATTTGCA (site GGATAGACTCG)”, “GGATAGACATGGACCGGTTTTCCCGGTAATCCGTATTTGCA (site GGATAGACTGG)” is lower in “recombinant UMI read abundance (log10)” value: 0.831 for the first, 0.112 for the second.

Compared with “GGATAGACATGGACCGGTTTTCCCGGTAATCCGTATTTGCA (site GGATAGACTTG)”, “GGATAGACATGGACCGGTTTTCCCGGTAATCCGTATTTGCG (site GGATAGACTAG)” is lower in “recombinant UMI read abundance (log10)” value: 2.79 for the first, 2.19 for the second.

First: GGATAGACATGGACCGGTTTTCCCGGTAATCCGTATTTGCG (site GGATAGACTCG)
Second: GGATAGACATGGACCGGTTTTCCCGGTAATCCGTATTTGCG (site GGATAGACTGG)
The “recombinant UMI read abundance (log10)” value of the first is higher: 2.55 for the first, 1.52 for the second.

Compared with “GGATAGACATGGACCGGTTTTCCCGGTAATCCGTATTTGCG (site GGATAGACTTG)”, “GGCAAGACATGGACCGGTTTTCCCGGTAATCCGTATTTGCA (site AGGAAGACTTG)” is lower in “recombinant UMI read abundance (log10)” value: 2.13 for the first, 0 for the second.

Going from “GGCAAGACATGGACCGGTTTTCCCGGTAATCCGTATTTGCA (site GGCAAGACTTG)” to “GGCAATCCATGGACCGGTTTTCCCGGTAATCCGTATTTGAG (site GGCAATCCTAT)”, the “recombinant UMI read abundance (log10)” value falls from 2.62 to 0.

First: GGCAATCCATGGACCGGTTTTCCCGGTAATCCGTATTTGAG (site GGCAATCCTCT)
Second: GGCAATCCATGGACCGGTTTTCCCGGTAATCCGTATTTGAG (site GGCAATCCTGT)
The “recombinant UMI read abundance (log10)” value of the first is higher: 0.41 for the first, 0 for the second.

“GGCAATCCATGGACCGGTTTTCCCGGTAATCCGTATTTGAG (site GGCAATCCTTT)” and “GGCAATCCATGGACCGGTTTTCCCGGTAATCCGTATTTGGA (site GGCAATCCTTA)” are within 0.2 log units of each other in “recombinant UMI read abundance (log10)” value: 0.0105 for the first, 0 for the second.

“GGCAATCCATGGACCGGTTTTCCCGGTAATCCGTATTTGGA (site GGCAATCCTTC)” and “GGCAATCCATGGACCGGTTTTCCCGGTAATCCGTATTTGGA (site GGCAATCCTTG)” are the same in “recombinant UMI read abundance (log10)” value: 0 for the first, 0 for the second.

Going from “GGCAATCCATGGACCGGTTTTCCCGGTAATCCGTATTTGGA (site GGCAATCCTTT)” to “GGCACGACATGGACCGGTTTTCCCGGTAATCCGTATTTGCG (site GGCACGACTCG)”, the “recombinant UMI read abundance (log10)” value rises from 0.00891 to 0.903.

“GGCACGCCATGGACCGGTTTTCCCGGTAATCCGTATTTGTA (site GACACGCCTTA)” and “GGCACGCCATGGACCGGTTTTCCCGGTAATCCGTATTTGTA (site GCCACGCCTTA)” are within 0.2 log units of each other in “recombinant UMI read abundance (log10)” value: 0.00602 for the first, 0.006 for the second.

Going from “GGCACGCCATGGACCGGTTTTCCCGGTAATCCGTATTTGTA (site GGCACGCCTTA)” to “GGCACGCCATGGACCGGTTTTCCCGGTAATCCGTATTTGTA (site GTCACGCCTTA)”, the “recombinant UMI read abundance (log10)” value falls from 0.523 to 0.00471.

First: GGCACGTCATGGACCGGTTTTCCCGGTAATCCGTATTTGTT (site GGAACGTCTAA)
Second: GGCACGTCATGGACCGGTTTTCCCGGTAATCCGTATTTGTT (site GGCACGTCTAA)
The “recombinant UMI read abundance (log10)” value of the first is lower: 0.027 for the first, 0.595 for the second.

“GGCACGTCATGGACCGGTTTTCCCGGTAATCCGTATTTGTT (site GGGACGTCTAA)” and “GGCACGTCATGGACCGGTTTTCCCGGTAATCCGTATTTGTT (site GGTACGTCTAA)” are within 0.2 log units of each other in “recombinant UMI read abundance (log10)” value: 0.00471 for the first, 0.0192 for the second.

“GGCAGAGCATGGACCGGTTTTCCCGGTAATCCGTATTTGAG (site GGCAGAGCTCT)” and “GGCCAAACATGGACCGGTTTTCCCGGTAATCCGTATTTGAC (site GGCCAAACTGT)” are within 0.2 log units of each other in “recombinant UMI read abundance (log10)” value: 1.67 for the first, 1.73 for the second.

“GGCCACCCATGGACCGGTTTTCCCGGTAATCCGTATTTGTA (site GGCCACCCTAA)” and “GGCCACCCATGGACCGGTTTTCCCGGTAATCCGTATTTGTA (site GGCCACCCTCA)” are within 0.2 log units of each other in “recombinant UMI read abundance (log10)” value: 0.0187 for the first, 0.014 for the second.

“GGCCACCCATGGACCGGTTTTCCCGGTAATCCGTATTTGTA (site GGCCACCCTGA)” and “GGCCACCCATGGACCGGTTTTCCCGGTAATCCGTATTTGTA (site GGCCACCCTTA)” are within 0.2 log units of each other in “recombinant UMI read abundance (log10)” value: 0 for the first, 0.081 for the second.

For “GGCCACCCATGGACCGGTTTTCCCGGTAATCCGTATTTGTG (site GGCCACCCTAA)”, the “recombinant UMI read abundance (log10)” value was 0.00884.
